Results: ChEMBL document CHEMBL1151650, “New Furostanol Glycosides from Asparagus plumosus Leaves” (J Nat Prod, 1985)

Test system: Biomphalaria glabrata
Experiment: Toxic molluscicidal activity against Biomphalaria glabrata
Assay type: ADME, organism-based
Conditions: in vivo

SMILES | Activity
C[C@@H](CC[C@@]1(O)O[C@H]2C[C@H]3[C@@H]4CC=C5C[C@@H](O[C@@H]6O[C@H](CO)[C@@H](O)[C@H](O[C@@H]7O[C@@H](C)[C@H](O)[C@@H](O)[C@H]7O)[C@H]6O[C@@H]6O[C@@H](C)[C@H](O)[C@@H](O)[C@H]6O)CC[C@]5(C)[C@H]4CC[C@]3(C)[C@H]2[C@@H]1C)CO[C@@H]1O[C@H](CO)[C@@H](O)[C@H](O)[C@H]1O | Non-toxic
CO[C@]1(CC[C@H](C)CO[C@@H]2O[C@H](CO)[C@@H](O)[C@H](O)[C@H]2O)O[C@H]2C[C@H]3[C@@H]4CC=C5C[C@@H](O[C@@H]6O[C@H](CO)[C@@H](O)[C@H](O[C@@H]7O[C@@H](C)[C@H](O)[C@@H](O)[C@H]7O)[C@H]6O[C@@H]6O[C@@H](C)[C@H](O)[C@@H](O)[C@H]6O)CC[C@]5(C)[C@H]4CC[C@]3(C)[C@H]2[C@@H]1C | Non-toxic
